# Reference: patent US8686028B2, “Substituted benzfurochromenes and related compounds for the prevention and treatment of bone related disorders” (Council of Scientific & Industrial Research, priority 2008, dated 2014)
# “Also recorded” adds a separate entry of the source.
# Tests used:
# bone marrow osteoblasts = test: Mineralization of bone marrow osteoblasts (Alizarin red extraction); type: cell-based; conditions: 10^−12M and 10^−10 M, 18 d bone marrow culture
# Description: In addition, the effect of S006-1709 on mineralization of bone marrow osteoblasts was also studied.
# In addition, the effect of S006-1710 on mineralization of bone marrow osteoblasts was also studied.
# Calvarial osteoblasts [1] = test: Alkaline phosphatase (ALP) activity for osteoblast differentiation, calvarial osteoblasts; type: cell-based, rat; conditions: calvarial osteoblasts, 48 h
# Experimental: (§1) Neonatal rat calvarial cell cultures are prepared as described previously (Endocrinology 145:3451) using slight modification. Briefly, for primary osteoblast cell cultures, frontal and parietal bones from Sprague-Dawley rat neonates (1-3 day old) are digested in 0.1% collagenase/0.1% dispase in α-MEM to obtain 5 sequential digests. The second through fifth digests are combined and grown to confluence at 37° C. and 5% CO2 in air in α-MEM, supplemented with 10% fetal bovine serum (FBS), 2 mM glutamine, 100 U/ml penicillin-streptomycin, Non-essential amino acid solution and sodium pyruvate.
# 70 to 80% confluent Calvarial osteoblasts were treated with μM S006-1709 for 48 h in the presence of ascorbate and glycerophosphate. At the end of incubation period, total ALP activity was measured with a method using p-nitrophenylphosphate (PNPP) as substrate. The reaction mixture contained diethanolamine buffer (1 mol/L, pH 9.8), 0.5 mmol/L MgCl2.6H2O, and 10 mmol/L PNPP. ALP activity was measured by taking OD of the amount of colored product formed by the dephosphorylation of PNPP at 405 nm. […] In addition, the effect of S006-1709 on mineralization of calvarial osteoblasts was studied.
# (§2) We then studied its effect in osteoblast differentiation in both calvarial and bone marrow osteoblasts. Confluent calvarial osteoblasts (70 to 80%) were treated with S006-1710 for 48 h in the presence of ascorbate and glycerophosphate at concentrations ranging from 10^−16M to 10^−6M. At the end of incubation period, total ALP activity was measured with the same method used previously using p-nitrophenylphosphate (PNPP) as substrate.
# 70 to 80% confluent Calvarial osteoblasts were treated with S007-1351 for 48 h in the presence of ascorbate and glycerophosphate. At the end of incubation period, total ALP activity was measured with a method using p-nitrophenylphosphate (PNPP) as substrate. The reaction mixture contained diethanolamine buffer (1 mol/L, pH 9.8), 0.5 mmol/L MgCl2.6H2O, and 10 mmol/L PNPP. ALP activity was measured by taking OD of the amount of colored product formed by the dephosphorylation of PNPP at 405 nm.
# 70 to 80% confluent calvarial osteoblasts were treated with S007-1352 for 48 h in the presence of ascorbate and glycerophosphate at concentrations ranging from 10^−12M to 10^−6 M. At the end of incubation period, total ALP activity was measured with the same method used previously using p-nitrophenylphosphate (PNPP) as substrate.
# Calvarial osteoblasts [2] = test: Mineralization of calvarial osteoblasts (Alizarin red extraction); type: cell-based, rat; conditions: 10^−12 M and 10^−10 M
# [3] = system: Calvarial osteoblast cells; test: MTT cell proliferation assay; type: cell-based, rat; conditions: 10^−10 M to 10^−6M, 24 hrs
# Experimental: as §1
# MTT [3-(4,5-dimethylthiazol-2-yl)-2,5-diphenyltetrazolium bromide] assay, first described by Mosmann in 1983, is based on the ability of a mitochondrial dehydrogenase enzyme from viable cells to cleave the tetrazolium rings of the pale yellow MTT and form a dark blue formazan crystals which is largely impermeable to cell membranes, thus resulting in its accumulation within healthy cells. Solubilisation of the cells by the addition of a detergent results in the liberation of the crystals which are solubilized. The number of surviving cells is directly proportional to the level of the formazan product created. The color can then be quantified using a simple colorimetric assay. The results can be read on a multiwell scanning spectrophotometer (Mosmann T. Rapid colorimetric assay for cellular growth and survival: application to proliferation and cytotoxicity assays. J Immunol Methods. 1983 Dec. 16; 65(1-2):55-63).
# Calvarial osteoblast cells plated at a density of 2.0×10^3 cells/200 ul in 96 wells plates. Cells were grown to 60% confluency and then treated with following compounds S006-1709, S006-1710, 5006-1711, S006-1713 and; S006-1714 at concentrations ranging from 10^−10 M to 10^−6M for 24 hrs. After treatment media was removed and 10 mM MTT was added solution in phenol red free DMEM media. After an incubation of 4 hrs the MTT solution was removed. Blue colored crystals were formed which were dissolved in DMSO and absorbance was read on ELISA plate reader at 570 nm wavelength.
# [4] = system: bone marrow derived osteoblasts; test: ALP activity in bone marrow derived osteoblasts; type: cell-based; conditions: 10^−16M to 10^−6M
# Experimental: as §2
# [5] = system: ovariectomized immature female rats; test: Anti-estrogenicity, uterine fresh weight with ethynyl estradiol co-treatment; type: in vivo, rat; conditions: 10 mg/Kg oral plus ethynyl estradiol 0.01 mg/kg; for Anti-Estrogenic Activity, % (second line of cell): relative to ethynyl estradiol
# Experimental: (§3) 21 day old immature female rats (25-30 grams) were ovariectomized and given 7 days post-operative rest. Thereafter they were treated orally with the test agent (10 mg/Kg body weight) or with vehicle or Ethynyl estradiol, the reference standard for three consecutive days. For anti-estrogenicity, other than the test chemical, ethynyl estradiol (0.01 mg/kg) was given at 15 minutes interval before the test chemical. Autopsy was done 24 h after last treatment and uterine fresh weight was taken.
# [6] = system: ovariectomized immature female rats; test: Estrogenicity, uterine fresh weight in ovariectomized immature female rats; type: in vivo, rat; conditions: 10 mg/Kg oral; for Estrogenic Activity, % (second line of cell): relative to vehicle; for Estrogenic Activity (uterine fresh weight): three consecutive days, vehicle 16.46
# Experimental: as §3
# 3T3-L1 cells = test: Anti-adipogenic effect (Oil Red O) in 3T3-L1 cells; type: cell-based, mouse
# Experimental: The best characterized model of adipogenesis in vitro is the 3T3-L1 cell line, a substrain of Swiss 3T3 mouse cell line. 3T3-L1 cells propagated under normal conditions have a fibroblastic phenotype. However, when treated with a combination of dexamethasone, isobutylmethylxanthine (IBMX or MIX) and insulin, 3T3-L1 cells adopt a rounded phenotype and within 5 days begin to accumulate lipids intracellularly in the form of lipid droplets.
# 3T3-L1 cells were plated in 48-well plates 40,000 cells/well. The cells were incubated in DMEM containing fetal calf serum for 2 days until the cells become confluent. The cells were then incubated with Adipogenesis initiation media which contains DMEM with 10% FCS, IBMX and dexamethasone for 48 hrs at 37° C., 5% CO2. After two days the media was replaced with Adipogenesis Progression media which contains DMEM/10% FCS and insulin for 48 hrs at 37° C., 5% CO2, Media was again changed gently to Adipogenesis maintenance media for 48 hrs at 37° C., 5% CO2. At the end of eight days of experiment the cells were fixed and then stained with Oil Red O which stains lipid droplets. The dye was extracted and extracted dye was transferred to a 96-well plate and absorbance of extracted Oil Red O was measured in a plate reader at 490 nm.
# Compounds S006-1709, S007-1351-53, S007-1495 and S007-1500 were tested in vitro in 3T3L1 cell line at two concentrations 10^−10 M and 10^−12M. FIG. 8A depicts the adipocytes formed at the end of the 8 day experiment. The fixed cells were stained with Oil Red O. The dye was then extracted and quantified.
# [7] = system: Immature 21 d old female SD rat; test: In vivo efficacy, BMD in immature female SD rats; conditions: for BMD % increase versus vehicle control, FEMUR Global / BMD % increase versus vehicle control, FEMUR Mid-shaft / BMD % increase versus vehicle control, FEMUR Neck / BMD % increase versus vehicle control, LUMBER VERTEBRAE Global / BMD % increase versus vehicle control, LUMBER VERTEBRAE L-1 / BMD % increase versus vehicle control, LUMBER VERTEBRAE L-2 / BMD % increase versus vehicle control, LUMBER VERTEBRAE L-3 / BMD % increase versus vehicle control, LUMBER VERTEBRAE L-4 / BMD % increase versus vehicle control, TIBIA Global / BMD % increase versus vehicle control, TIBIA Proximal / BMD % increase versus vehicle control, TIBIA TFSP: one month
# Experimental: Immature 21 d old female SD rat model was chosen, animals were randomized into four groups and treated with a daily dose of test agent or vehicle for one month and autopsied on day 31.
# […], the animals were shifted to metabolic cage for acclaimatization for 24 h with food and water. Post acclaimatization animals were further left in metabolic cage for 24 h with water but no food. Blood and urine samples were collected after 24 h. Various biochemical parameters like serum calcium, serum phosphorus, serum osteocalcin, serum alkaline phosphatase (ALP) were evaluated. The animals were autopsied on day 31 and lumbar vertebrae, femur and tibia bones were isolated, cleaned and fixed in 70% ethanol in saline and stored at 4° C. until BMD measurement. Initial and final body weight and uterine weight at autopsy were recorded. BMD measurements of region of interest (lumbar: global, L1-L4; femur: global, neck and mid-shaft; tibia: global, proximal and tibio-fibula junction point) was performed using a bone densitometer (Model 4500 Elite, Hologic) fitted with commercially available software (QDR 4500 ACCLAIM series) for a fan-beam DXA system that permits determination of bone densitometry and measurement of body composition in small animals in vivo.
structure (smiles),measurement,setting,value
"O=c1c(-c2ccccc2O)coc2cc(O)ccc12 [Compound S006-1711, 7-Hydroxy-3-(2-hydroxy-phenyl)-chromen-4-one]","mineralization of bone marrow osteoblasts (nascent calcium deposition, Alizarin red)",bone marrow osteoblasts,stimulated mineralization
same,melting point,,196 to 198 °C
same,osteoblast ALP activity vs vehicle control,Calvarial osteoblasts [1]; 10^−16M to 10^−6M,stimulated ALP activity
same,"mineralization of calvarial osteoblasts (nascent calcium deposition, Alizarin red)",Calvarial osteoblasts [2],stimulated mineralization
same,effect on osteoblast proliferation (MTT),[3],did not have any effect
same,ALP activity in bone marrow derived osteoblasts,[4],stimulated ALP activity
same,Anti-Estrogenic Activity (uterine fresh weight),[5],85.16
same,anti-estrogenicity (in words),[5],not found to be anti-estrogenic
same,"Anti-Estrogenic Activity, % (second line of cell)",[5],13%
same,estrogenicity (in words),[6],estrogenic
same,"Estrogenic Activity, % (second line of cell)",[6],192%
same,Estrogenic Activity (uterine fresh weight),[6],48.13
"COc1ccccc1-c1coc2c(O)c(O)ccc2c1=O [Compound S007-1352, 7,8-Dihydroxy-3-(2-methoxy-phenyl)-chromen-4-one]",melting point,,220 to 222 °C
same,osteoblast ALP activity vs vehicle control,Calvarial osteoblasts [1]; 10^−12M to 10^−6M,significant increase
same,effect on adipogenesis,"3T3-L1 cells; 3T3L1, both concentrations (10^−10 M and 10^−12M)",inducers of adipogenesis
"COc1ccccc1-c1coc2cc(O)ccc2c1=O [Compound S006-1710, 7-Hydroxy-3-(2-methoxy-phenyl)-chromen-4-one]","mineralization of bone marrow osteoblasts (nascent calcium deposition, Alizarin red)",bone marrow osteoblasts,stimulate mineralization; also recorded: significant increase
same,osteoblast ALP activity vs vehicle control,Calvarial osteoblasts [1]; 10^−16M to 10^−6M,significant increase
same,"mineralization of calvarial osteoblasts (nascent calcium deposition, Alizarin red)",Calvarial osteoblasts [2],stimulate mineralization
same,effect on osteoblast proliferation (MTT),[3],no osteoblast proliferating action
same,Anti-Estrogenic Activity (uterine fresh weight),[5],79.9
same,anti-estrogenicity (in words),[5],not found to be anti-estrogenic
same,"Anti-Estrogenic Activity, % (second line of cell)",[5],19%
same,estrogenicity (in words),[6],estrogenic
same,"Estrogenic Activity, % (second line of cell)",[6],446%
same,Estrogenic Activity (uterine fresh weight),[6],89.96
"C=CCOc1ccc2c(c1C)OCC1c3ccccc3OC21 (stereo not shown) [Compound S007-1500, 3-Allyloxy-4-methyl-6a,11a-dihydro-6H-benzo[4,5]furo[3,2-c]chromene]",osteoblast ALP activity vs vehicle control,Calvarial osteoblasts [1]; 10^−12M to 10^−6M,stimulated ALP activity
same,osteoblast ALP activity vs vehicle control,"Calvarial osteoblasts [1]; 10^−12M to 10^−6M, listed as S-007-1500",showed stimulation in ALP activity
same,"BMD % increase versus vehicle control, FEMUR Global",[7]; 1 mg/kg daily,+27%
same,"BMD % increase versus vehicle control, FEMUR Mid-shaft",[7]; 1 mg/kg daily,+35%
same,"BMD % increase versus vehicle control, FEMUR Neck",[7]; 1 mg/kg daily,+16%
same,"BMD % increase versus vehicle control, LUMBER VERTEBRAE Global",[7]; 1 mg/kg daily,+13%
same,"BMD % increase versus vehicle control, LUMBER VERTEBRAE L-1",[7]; 1 mg/kg daily,+6%
same,"BMD % increase versus vehicle control, LUMBER VERTEBRAE L-2",[7]; 1 mg/kg daily,+21%
same,"BMD % increase versus vehicle control, LUMBER VERTEBRAE L-3",[7]; 1 mg/kg daily,+5.5%
same,"BMD % increase versus vehicle control, LUMBER VERTEBRAE L-4",[7]; 1 mg/kg daily,−8.5%
same,"BMD % increase versus vehicle control, TIBIA Global",[7]; 1 mg/kg daily,+35%
same,"BMD % increase versus vehicle control, TIBIA Proximal",[7]; 1 mg/kg daily,+16.5%
same,"BMD % increase versus vehicle control, TIBIA TFSP",[7]; 1 mg/kg daily,+70%
same,"BMD % increase versus vehicle control, FEMUR Global",[7]; 5 mg/kg daily,+25%
same,"BMD % increase versus vehicle control, FEMUR Mid-shaft",[7]; 5 mg/kg daily,+30%
same,"BMD % increase versus vehicle control, FEMUR Neck",[7]; 5 mg/kg daily,+26%
same,"BMD % increase versus vehicle control, LUMBER VERTEBRAE Global",[7]; 5 mg/kg daily,+17%
same,"BMD % increase versus vehicle control, LUMBER VERTEBRAE L-1",[7]; 5 mg/kg daily,+7%
same,"BMD % increase versus vehicle control, LUMBER VERTEBRAE L-2",[7]; 5 mg/kg daily,+14.5%
same,"BMD % increase versus vehicle control, LUMBER VERTEBRAE L-3",[7]; 5 mg/kg daily,+25%
same,"BMD % increase versus vehicle control, LUMBER VERTEBRAE L-4",[7]; 5 mg/kg daily,+14%
same,"BMD % increase versus vehicle control, TIBIA Global",[7]; 5 mg/kg daily,+37%
same,"BMD % increase versus vehicle control, TIBIA Proximal",[7]; 5 mg/kg daily,+33%
same,"BMD % increase versus vehicle control, TIBIA TFSP",[7]; 5 mg/kg daily,+69%
same,BMD in Femur and Tibia (in words),[7]; both doses of 1.0 and 5.0 mg/kg,significant increase
same,effect on adipogenesis,"3T3-L1 cells; 3T3L1, at different concentrations (10^−10 M and 10^−12M tested)",significantly inhibited adipogenesis
same,estrogenicity (in words),[6],devoid of any estrogenicity
